Data published in patent US4734280A, “Treatment or prevention of PAF Acether-induced maladies” (priority 1984, dated 1988).
Like-named read-outs stand apart in the source and are kept apart here.

Columns and labels:
Hartley guinea-pig = experiment: PAF Acether-induced bronchoconstriction in the anesthetized guinea-pig; assay type: in vivo; conditions: 1 mg/kg IV; for % of bronchoconstriction: 5 minutes before PAF Acether 60 ng/kg IV, % of maximal bronchoconstriction, average of 10 animals; for % of inhibition (bronchoconstriction): vs solvent in the same batch
Experimental: Method: (For details, see B. B. VARGAFTIG, J. LEFORT, F. WAL, M. CHIGNARD and M. C. MEDEIROS-Non-steroidal anti-inflammatory drugs of combined with anti-histamine and anti-serotonin agents interfere with the bronchial and platelet effects of PAF Acether-Enr. J. Pharm. (1982) 82 121-130). Male Hartley guinea-pig (400-500 g) were anesthetized with urethane 2 g/kg Ip., tracheotomised and ventilated by mean of a respiratory pump: 70-80 strokes mn, stroke volume 5 ml, a pneumothorax was done to abolish spontaneous respiration. The right jugular vein was catherized and used for injections.
The initial resistance was kept constant at 10 cm H2 O pressure according to the method of Konzett and Rossler and the overflowed airway was measured with a bronchospasm transducer UGO BASILE connected to a UGO BASILE recorder "GEMINI". Bronchial sensitivity of the animal was checked with acetylcholine (10-40 ng kg^-1 IV) and after constant response was obtained, there were injected, IV, first the propylene glycol and, five minutes later, 60 ng/kg of PAF Acether, which gave the control bronchoconstriction expressed as % of maximal bronchoconstriction given by clamping off the trachea. 40 minutes later, the tested compounds were administered by IV injection and, 5 minutes later, 60 ng/kg of PAF Acether by the same route. This experimentation was conducted on three batches of each 10 animals: first batch for Ginkgolide A, second one for Ginkgolide B and last one for Ginkgolide C, all at the 1 mg/kg dose. The figures of the following table are the average values for the 10 animals of each batch.

human PRP = experiment: Inhibition of PAF Acether-induced PA, human PRP in vitro; assay type: cell-based; conditions: PAF Acether 100 nM, read-out: IC Doses (PAF Acether-induced PA, human PRP)
Experimental: (§1) The Inhibition of PAF Acether-induced PA has been studied on rabbit plasma-rich platelets (PRP). Two doses of PAF Acether were used (2.5 nM and 5 nM). The tested compound was added to the medium 3 minutes before PAF Acether and aggregation was followed by monitoring changes in electrical impedance (Whole-Blood aggregometer-chrono-Log); kadsurenone was simultaneously tested as reference compound and the IC50 molar doses of Ginkgolides A, B, C and M and of kadsurenone on PAF Acether-induced rabbit PA (PRP) have been calculated.
The inhibition of PAF Acether-induced PA has been studied on human PRP. The same protocol was used as for rabbit hereinabove.

[1] = test system: rabbit plasma-rich platelets (PRP); experiment: Aggregation induced by other known aggregants (ADP, thrombine, calcium ionophore A 23187, collagen, adrenaline); assay type: cell-based; conditions: calcium ionophore A 23187, collagen and adrenaline
PAF-Acether receptor = molecular target: T1, PAF-Acether receptor (Oryctolagus cuniculus, UniProt G1TEI7); experiment: Competition with 3H-PAF Acether binding, rabbit membrane platelet preparation; conditions: read-out: reduction of 3H-PAF Acether binding
T1 construct: using a rabbit membrane platelet preparation; from tissue; host or cells: rabbit platelets (membrane preparation)
Excerpt: The competition of the alternative binding of either ^3 H-PAF Acether or one of the Ginkgolides was evidenced by radioactive determinations using a rabbit membrane platelet preparation. (100% control=^3 H-PAF Acether alone).

Sprague-Dowley rats = experiment: Cutaneous vascular hyperpermeability induced by PAF Acether in the rat; assay type: in vivo; conditions: 1 mg/kg IV; for PAF Acether induced wheal, Surface: PAF Acether 25 ng intradermal, 30 mn; for PAF Acether induced wheal, Surface / PAF Acether induced wheal, Coloration OD: p < 0.001; for PAF Acether induced wheal, Coloration OD: optical density at 620 nm; for PAF Acether induced wheal, Coloration % decrease / PAF Acether induced wheal, Surface % decrease: vs control
Experimental: Method: Intradermal injection of 25 ng of PAF Acether in the dorsal region of the rat with simultaneous IV injection of Evans blue dye (60 mg/kg/5 ml) induces vascular hyperpermeability and wheals formation. (for details see Basran GS, Page CP, Paul W and Morley J-Cromoglycate inhibits responses to platelet-activating factor (PAF Acether) in man: an alternative mode of action for DSCG in asthma-Eur. J. Pharma. (1983) 86 143-144).
These wheals were measured (surface in mm^2) at the inner side of the skin 30 mn after the injections and were taken off, put in 4 ml of formamide, incubated at 65° C. during 24 h in order to extract the dye and measure their coloration (optical density at 620 nm).
Groups of 6 Sprague-Dowley rats weighing 200 g were used and each rat received intradermal injections in two sites of the back. The experiment was performed in comparison with a reference compound, D 600 (methoxy verapamil), a calcium-blocker agent.
Treatments: Tested compounds were administered by IV route injected once simultaneously with the dye.

New-Zealand rabbits = experiment: PAF Acether-induced shock in the rabbit; assay type: in vivo; conditions: for Extravasation (O.D.): 2 mg/kg IV perfusion, 30 mn, optical density at 590 nm, average of 10 animals; for Behaviour: behavioural modifications / Behaviour: deaths: 2 mg/kg IV, PAF Acether 2 and 4 nmol/kg, 10 animals per batch
Experimental: Treatment: Tested compounds (Gingkolides A, B and C) or vehicle were perfused in the ear vein in 45 ml NaCl 0.9% for 1 hour before PAF Acether injection. Vehicle consisted of 1.5 ml of propylene glycol completed to 45 ml by isotonic NaCl buffer; Ginkgolides were administered at the dose of 2 mg/kg IV; the figures reported in the following table are the average values of the 10 animals of each batch.

[2] = test system: rabbit plasma-rich platelets (PRP); experiment: Inhibition of PAF Acether-induced PA, rabbit PRP in vitro; assay type: cell-based; conditions: Oryctolagus cuniculus, Platelet, average of 10 assays, read-out: IC50 doses on PAF Acether-induced rabbit PA (PRP)
Experimental: as §1
The results obtained are presented in the following table (average values for 10 assays for each dose) and FIG. 1: […]

[3] = test system: guinea-pig lung parenchymal strip; experiment: PAF Acether-induced contraction of superfused lung parenchymal strip; conditions: for inhibition at 30 µg/mL: Cavia porcellus, read-out: change of PAF Acether (3 ng)-induced contraction; for Contraction induced by PAF Acether (3 ng) (Arbitrary Units): preventive superfusion 30 μg/ml, average of 10 determinations
human platelets = experiment: Ex vivo PAF Acether-induced PA in man after IV administration; conditions: IV 25 mg, PAF Acether 100 nM
Experimental: […] DMSO).
The same protocol described hereinabove for rabbit was used in man with only one dose of each Ginkgolide (IV 25 mg) and two blood takes (at 0.5 h and 1 h).

[4] = test system: guinea-pig mesenteric artery; experiment: Opto-electronic follow-up of PAF Acether-induced thrombus, guinea-pig mesenteric artery; assay type: in vivo
Excerpt: In this experimental study, 20 guinea-pigs were used. […] Briefly summarized, this method consists in the dissection over a distance of 2 to 3 mm of a branch of the mesenteric artery following gently extraction of a loop of small intestine. By transillumination, the image of this arterial segment is projected onto a set of 30 light-depending resistances (LDR) arranged in two columns of 15 elements each. An LDR element has the property to change its internal resistance as a function of a variation of light intensity. Each LDR is connected into its own Wheatstone bridge, and the changes in light intensity due to thrombus formation will be recorded as variations in electrical potentials and registered as such via a multiplexing device.
In the present investigation, several discriminating parameters are recorded: (a) the t1 interval or the lag period (this is the time interval between the beginning of the PAF Acether superfusion and the first signs of thrombus formation; (b) the td interval is the duration of the thrombotic phenomenon; (c) the O(t) curve indicates the number of LDR elements covered by the thrombus image; (d) the D(t) curve represents during each 30×1/9×10^-2 sec interval the greatest potential deviation on one of the LDR elements covered by the thrombus image; (e) the T(t) curve represents the summation of the potentials registered on the LDR elements during a time interval of 30×1/9×10^-2 sec the TTV(t) curve results from the integration of the T(t) values in function of time; (f) mD, mT, and mO correspond to the maximal values registered on, respectively, the D(t), T(t), and O(t) curves; (g) TTV is the maximal value of the TTV(t) curve, whereas TVM is the value of this curve up to the point where mT is reached.
In a first series of experiments (10 animals) the effect of local superfusion with PAF Acether (10^-4 M) is investigated.
In a second series of experiments (10 animals) the effects of Ginkgolide B and of kadsurenone have been compared preventively and curatively.

T1 sequence (G1TEI7 1-342): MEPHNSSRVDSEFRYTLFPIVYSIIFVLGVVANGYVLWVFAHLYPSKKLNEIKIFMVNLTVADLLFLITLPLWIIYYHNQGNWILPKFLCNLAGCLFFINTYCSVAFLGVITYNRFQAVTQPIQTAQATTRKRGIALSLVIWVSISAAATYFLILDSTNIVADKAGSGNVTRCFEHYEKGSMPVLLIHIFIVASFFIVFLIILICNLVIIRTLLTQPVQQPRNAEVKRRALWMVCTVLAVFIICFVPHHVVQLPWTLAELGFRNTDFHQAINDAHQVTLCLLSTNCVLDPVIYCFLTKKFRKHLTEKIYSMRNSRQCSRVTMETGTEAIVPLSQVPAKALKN

SMILES	% of bronchoconstriction (Hartley guinea-pig)	% of inhibition (bronchoconstriction) (Hartley guinea-pig)	IC50 (human PRP)	effect against aggregation induced by other known aggregants [1]	inhibition at 10 µM (PAF-Acether receptor)	PAF Acether induced wheal, Surface (Sprague-Dowley rats)	PAF Acether induced wheal, Coloration OD (Sprague-Dowley rats)	PAF Acether induced wheal, Coloration % decrease (Sprague-Dowley rats)	PAF Acether induced wheal, Surface % decrease (Sprague-Dowley rats)	Extravasation (O.D.) (New-Zealand rabbits; PAF Acether 2 nmol/kg)	Extravasation (O.D.) (New-Zealand rabbits; PAF Acether 4 nmol/kg)	Behaviour: behavioural modifications (New-Zealand rabbits)	Behaviour: deaths (New-Zealand rabbits)	IC50 ([2]; PAF Acether 2.5 nM)	IC50 ([2]; PAF Acether 5 nM)	Contraction induced by PAF Acether (3 ng) (Arbitrary Units) [3]	% of aggregation with respect to control (human platelets; blood take at 0.5 h)	% of aggregation with respect to control (human platelets; blood take at 1.0 h)	further results
CC1C(=O)OC2C(O)C34C5OC(=O)C3(OC3OC(=O)C(O)C34C(C(C)(C)C)C5O)C12O (stereo not shown) [Ginkgolide C]	17.0%	78.6%	150 µM	totally ineffective	83%	68.1 mm^2	0.701 OD	-39%	-34%	0.910 O.D.	0.875 O.D.	No behavioural	No death	15.3 µM	25.4 µM	11.08 ± 2.42 Arbitrary Units	0%	10.6%	inhibition at 30 µg/mL [3]: 70.8%
C=CCC1=C[C@@]2(OC)C(=CC1=O)O[C@H](c1ccc(OC)c(OC)c1)[C@H]2C [Kadsurenone, kadsurenone, reference compound]			130 µM											9.94 µM	14 µM				thrombus formation when superfused with PAF Acether (preventive) ([4]; PAF Acether superfusion): no thrombus appeared; time for disappearance of pre-formed thrombus (curative) ([4]; PAF Acether-induced thrombus): about 4.30 minutes
C[C@@H]1C(=O)O[C@H]2C[C@@]34[C@H]5C[C@@H](C(C)(C)C)[C@]36[C@@H](OC(=O)[C@@H]6O)O[C@@]4(C(=O)O5)[C@]21O [Ginkgolide A]	13.3%	84.1%	90 µM	totally ineffective	67%	64.3 mm^2	0.631 OD	-45%	-37%	0.903 O.D.	0.881 O.D.	No behavioural	No death	8.32 µM	13.2 µM	10.30 ± 2.33 Arbitrary Units	0%	5.7%	inhibition at 30 µg/mL ([3]; 30 μg/ml, p < 0.001): 72.8%
COc1ccc(CCN(C)CCCC(C#N)(c2cc(OC)c(OC)c(OC)c2)C(C)C)cc1OC (stereo not shown) [D 600, methoxy verapamil, reference compound]						62.6 mm^2	0.664 OD	-42%	-39%										deaths/6 (Sprague-Dowley rats; group of 6 rats): two
CC1C(=O)OC2C1C13OC4OC(=O)C(O)C45C(C(C)(C)C)C(O)C(OC1=O)C35C2O (stereo not shown) [Ginkgolide M]				totally ineffective										122 µM	20.2 µM				inhibition at 100 µM (PAF-Acether receptor): 79%
